Legend:
SW-620 = assay: NCI 60-cell line growth inhibition assay; format: cell-based; conditions: Homo sapiens; SW-620 (Colon)
M14 = assay: NCI 60-cell line growth inhibition assay; format: cell-based; conditions: Homo sapiens; M14 (Melanoma)
SK-MEL-28 = assay: NCI 60-cell line growth inhibition assay; format: cell-based; conditions: Homo sapiens; SK-MEL-28 (Melanoma)
HOP-62 = assay: NCI 60-cell line growth inhibition assay; format: cell-based; conditions: Homo sapiens; HOP-62 (Non-Small Cell Lung)
SF-295 = assay: NCI 60-cell line growth inhibition assay; format: cell-based; conditions: Homo sapiens; SF-295 (CNS)
UO-31 = assay: NCI 60-cell line growth inhibition assay; format: cell-based; conditions: Homo sapiens; UO-31 (Renal)
SNB-75 = assay: NCI 60-cell line growth inhibition assay; format: cell-based; conditions: Homo sapiens; SNB-75 (CNS)
KM12 = assay: NCI 60-cell line growth inhibition assay; format: cell-based; conditions: Homo sapiens; KM12 (Colon)
K-562 = assay: NCI 60-cell line growth inhibition assay; format: cell-based; conditions: Homo sapiens, K562; K-562 (Leukemia)
HCT-15 = assay: NCI 60-cell line growth inhibition assay; format: cell-based; conditions: Homo sapiens; HCT-15 (Colon)
A498 = assay: NCI 60-cell line growth inhibition assay; format: cell-based; conditions: Homo sapiens; A498 (Renal)
HCC-2998 = assay: NCI 60-cell line growth inhibition assay; format: cell-based; conditions: Homo sapiens; HCC-2998 (Colon)
NCI-H460 = assay: NCI 60-cell line growth inhibition assay; format: cell-based; conditions: Homo sapiens; NCI-H460 (Non-Small Cell Lung)
DU-145 = assay: NCI 60-cell line growth inhibition assay; format: cell-based; conditions: Homo sapiens; DU-145 (Prostate)
UACC-62 = assay: NCI 60-cell line growth inhibition assay; format: cell-based; conditions: Homo sapiens; UACC-62 (Melanoma)
MDA-N = assay: NCI 60-cell line growth inhibition assay; format: cell-based; conditions: Homo sapiens; MDA-N (Breast)
SK-MEL-5 = assay: NCI 60-cell line growth inhibition assay; format: cell-based; conditions: Homo sapiens; SK-MEL-5 (Melanoma)
COLO 205 = assay: NCI 60-cell line growth inhibition assay; format: cell-based; conditions: Homo sapiens; COLO 205 (Colon)
NCI-H322M = assay: NCI 60-cell line growth inhibition assay; format: cell-based; conditions: Homo sapiens; NCI-H322M (Non-Small Cell Lung)
MOLT-4 = assay: NCI 60-cell line growth inhibition assay; format: cell-based; conditions: Homo sapiens; MOLT-4 (Leukemia)
OVCAR-3 = assay: NCI 60-cell line growth inhibition assay; format: cell-based; conditions: Homo sapiens; OVCAR-3 (Ovarian)
HCT-116 = assay: NCI 60-cell line growth inhibition assay; format: cell-based; conditions: Homo sapiens; HCT-116 (Colon)
MALME-3M = assay: NCI 60-cell line growth inhibition assay; format: cell-based; conditions: Homo sapiens; MALME-3M (Melanoma)
UACC-257 = assay: NCI 60-cell line growth inhibition assay; format: cell-based; conditions: Homo sapiens; UACC-257 (Melanoma)
MDA-MB-231/ATCC = assay: NCI 60-cell line growth inhibition assay; format: cell-based; conditions: Homo sapiens; MDA-MB-231/ATCC (Breast)
U251 = assay: NCI 60-cell line growth inhibition assay; format: cell-based; conditions: Homo sapiens, U-251; U251 (CNS)
SR = assay: NCI 60-cell line growth inhibition assay; format: cell-based; conditions: Homo sapiens; SR (Leukemia)
TK-10 = assay: NCI 60-cell line growth inhibition assay; format: cell-based; conditions: Homo sapiens; TK-10 (Renal)
EKVX = assay: NCI 60-cell line growth inhibition assay; format: cell-based; conditions: Homo sapiens; EKVX (Non-Small Cell Lung)
786-0 = assay: NCI 60-cell line growth inhibition assay; format: cell-based; conditions: Homo sapiens; 786-0 (Renal)
[1] = tested on: Tumor Cells in Hollow Fibers; assay: NCI Hollow Fiber Assay (in vivo evaluation)
NCI/ADR-RES = assay: NCI 60-cell line growth inhibition assay; format: cell-based; conditions: Homo sapiens; NCI/ADR-RES (Breast)
SK-MEL-2 = assay: NCI 60-cell line growth inhibition assay; format: cell-based; conditions: Homo sapiens; SK-MEL-2 (Melanoma)
SK-OV-3 = assay: NCI 60-cell line growth inhibition assay; format: cell-based; conditions: Homo sapiens; SK-OV-3 (Ovarian)
A549/ATCC = assay: NCI 60-cell line growth inhibition assay; format: cell-based; conditions: Homo sapiens; A549/ATCC (Non-Small Cell Lung)
SF-268 = assay: NCI 60-cell line growth inhibition assay; format: cell-based; conditions: Homo sapiens; SF-268 (CNS)
HOP-92 = assay: NCI 60-cell line growth inhibition assay; format: cell-based; conditions: Homo sapiens; HOP-92 (Non-Small Cell Lung)
OVCAR-5 = assay: NCI 60-cell line growth inhibition assay; format: cell-based; conditions: Homo sapiens; OVCAR-5 (Ovarian)
NCI-H522 = assay: NCI 60-cell line growth inhibition assay; format: cell-based; conditions: Homo sapiens; NCI-H522 (Non-Small Cell Lung)
CCRF-CEM = assay: NCI 60-cell line growth inhibition assay; format: cell-based; conditions: Homo sapiens; CCRF-CEM (Leukemia)

CC(=O)N[C@H]1CC[C@H](Nc2nc(NCc3ccc(-c4ccccn4)cc3)c3ncn(C(C)C)c3n2)CC1 [Compound 79]
GI50 (SW-620): < 10 nM
GI50 (M14): < 10 nM
GI50 (SK-MEL-28): < 10 nM
GI50 (HOP-62): < 10 nM
GI50 (SF-295): < 10 nM
GI50 (UO-31): < 10 nM
GI50 (SNB-75): < 10 nM
GI50 (KM12): < 10 nM
GI50 (K-562): < 10 nM
GI50 (HCT-15): < 10 nM
GI50 (A498): < 10 nM
GI50 (HCC-2998): < 10 nM
GI50 (NCI-H460): < 10 nM
GI50 (DU-145): < 10 nM
GI50 (UACC-62): < 10 nM
GI50 (MDA-N): < 10 nM
GI50 (SK-MEL-5): < 10 nM
GI50 (COLO 205): < 10 nM
GI50 (NCI-H322M): < 10 nM
GI50 (MOLT-4): < 10 nM
GI50 (OVCAR-3): < 10 nM
GI50 (HCT-116): < 10 nM
GI50 (MALME-3M): < 10 nM
GI50 (UACC-257): < 10 nM
GI50 (MDA-MB-231/ATCC): < 10 nM
GI50 (U251): < 10 nM
GI50 (SR): < 10 nM
GI50 (TK-10): < 10 nM
GI50 (EKVX): < 10 nM
GI50 (786-0): < 10 nM
IP Score ([1]; IP fibers): 26
SC score ([1]; SC fibers): 6
GI50 (NCI/ADR-RES): 860 nM
GI50 (SK-MEL-2): < 10 nM
GI50 (SK-OV-3): < 10 nM
GI50 (A549/ATCC): < 10 nM
GI50 (SF-268): < 10 nM
GI50 (HOP-92): < 10 nM
GI50 (OVCAR-5): < 10 nM
GI50 (NCI-H522): < 10 nM
GI50 (CCRF-CEM): < 10 nM
